Reference: ChEMBL document CHEMBL1133817, “Discovery of novel, orally active dual NK1/NK2 antagonists” (Bioorg Med Chem Lett, 2001)
Active and inactive are the calls of the source. The calls are words filed in the database; no cut-off is given here.

What was measured:
[1] = biological target: T1, Substance-K receptor (Oryctolagus cuniculus) (UniProt P79218); test: Binding constant towards Tachykinin receptor 2 using BANK as agonist on rabbit pulmonary artery tissues.
T1 sequence (whole entry): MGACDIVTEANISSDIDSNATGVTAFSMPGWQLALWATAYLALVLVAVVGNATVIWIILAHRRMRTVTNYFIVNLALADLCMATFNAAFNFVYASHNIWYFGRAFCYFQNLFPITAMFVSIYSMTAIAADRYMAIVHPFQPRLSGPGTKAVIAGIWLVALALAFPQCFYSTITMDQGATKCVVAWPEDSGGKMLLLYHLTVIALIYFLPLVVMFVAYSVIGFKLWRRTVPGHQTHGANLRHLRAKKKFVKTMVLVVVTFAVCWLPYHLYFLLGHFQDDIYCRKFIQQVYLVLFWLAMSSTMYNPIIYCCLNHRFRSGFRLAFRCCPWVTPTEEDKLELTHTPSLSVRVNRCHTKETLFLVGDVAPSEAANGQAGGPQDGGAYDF

[2] = test system: Substance-P receptor (Oryctolagus cuniculus); test: Binding constant towards tachykinin receptor 1 using ASMSP as agonist on rabbit pulmonary artery tissues.
[3] = biological target: T1, Substance-K receptor (Oryctolagus cuniculus); test: Binding constant towards Tachykinin receptor 2 using BANK as agonist on rabbit pulmonary artery tissues; NA is not active
Substance-P receptor = Substance-P receptor (Homo sapiens, UniProt P25103); conditions: Oryctolagus cuniculus; Artery
Substance-P receptor, sequence (P25103 whole entry): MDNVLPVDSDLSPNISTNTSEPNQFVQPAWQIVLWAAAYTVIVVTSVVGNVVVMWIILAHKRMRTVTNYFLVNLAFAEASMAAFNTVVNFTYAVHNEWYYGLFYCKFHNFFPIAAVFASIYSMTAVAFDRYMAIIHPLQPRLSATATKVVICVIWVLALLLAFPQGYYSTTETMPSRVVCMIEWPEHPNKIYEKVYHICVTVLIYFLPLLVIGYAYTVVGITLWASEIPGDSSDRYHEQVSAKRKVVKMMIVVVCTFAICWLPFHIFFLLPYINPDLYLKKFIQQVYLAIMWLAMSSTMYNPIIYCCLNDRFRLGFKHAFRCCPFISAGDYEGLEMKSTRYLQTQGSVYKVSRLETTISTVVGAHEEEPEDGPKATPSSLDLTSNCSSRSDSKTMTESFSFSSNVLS
Description: Binding constant towards Tachykinin receptor 1 using ASMSP as agonist on rabbit pulmonary artery tissues; NA is not active

| Structure (SMILES) | pKB [1] | pKB [2] | pKB [3] | pKB (Substance-P receptor) |
| --- | --- | --- | --- | --- |
| CN(C[C@@H](CCN1CCC(c2ccccc2[S+](C)[O-])CC1)c1ccc(Cl)c(Cl)c1)C(=O)c1cc(C(=O)O)cc2ccccc12 (stereo partly drawn) | 6.86 | 5.68 |  |  |
| CN(C[C@@H](CCN1CCC2(CC1)C[S+]([O-])c1ccccc12)c1ccc(Cl)c(Cl)c1)C(=O)c1cccc2ccccc12 (stereo partly drawn) | 8.1 | 6.98 |  |  |
| CN(C[C@@H](CCN1CCC(c2ccccc2[S+](C)[O-])CC1)c1ccc(Cl)c(Cl)c1)C(=O)c1cccc2cc(C#N)ccc12 (stereo partly drawn) | 7.62 | 8.55 |  |  |
| CN(C[C@@H](CCN1CCC(c2ccccn2)CC1)c1ccc(Cl)c(Cl)c1)C(=O)c1cccc2ccccc12 |  | 6.98 | inactive |  |
| CN(C[C@@H](CCN1CCC(c2ccccc2C(F)(F)F)CC1)c1ccc(Cl)c(Cl)c1)C(=O)c1cccc2ccccc12 |  | 6.03 | inactive |  |
| CNC(=O)c1ccccc1C1CCN(CC[C@H](CN(C)C(=O)c2cccc3ccccc23)c2ccc(Cl)c(Cl)c2)CC1 | 8.21 | 7.3 |  |  |
| CNC(=O)C1(N2CCCNC2=O)CCN(CC[C@H](CN(C)C(=O)c2cccc3ccccc23)c2ccc(Cl)c(Cl)c2)CC1 | 8.41 | 6.82 |  |  |
| CN(C)C(=O)C1(N2CCCCC2=O)CCN(CC[C@H](CN(C)C(=O)c2cccc3ccccc23)c2ccc(Cl)c(Cl)c2)CC1 | 8.23 | 6.78 |  |  |
| Cc1cc(C(=O)N(C)C[C@@H](CCN2CCC(c3ccccc3[S+](C)[O-])CC2)c2ccc(Cl)c(Cl)c2)c2ccccc2c1 (stereo partly drawn) | 7.29 | 8.03 |  |  |
| CN(C[C@@H](CCN1CCC(N2CCCNC2=O)CC1)c1ccc(Cl)c(Cl)c1)C(=O)c1cccc2ccccc12 | 7.92 | 7.34 |  |  |
| CN(C[C@@H](CCN1CCC(c2ccccc2[S@+](C)[O-])CC1)c1ccc(Cl)c(Cl)c1)C(=O)c1cc(C#N)cc2ccccc12 (stereo in doubt; 4b) | 8.39 |  |  |  |
| CN(C[C@@H](CCN1CCC(c2ccccc2[S+](C)[O-])CC1)c1ccc(Cl)c(Cl)c1)C(=O)c1cccc2ccc(C#N)cc12 (stereo partly drawn) | 8.51 | 8.13 |  |  |
| CC(=O)NC1(c2ccccc2)CCN(CC[C@H](CN(C)C(=O)c2cccc3ccccc23)c2ccc(Cl)c(Cl)c2)CC1 | 8.18 | 7.18 |  |  |
| CN(C[C@@H](CCN1CCC(N2C(=O)CCCC2=O)CC1)c1ccc(Cl)c(Cl)c1)C(=O)c1cccc2ccccc12 |  | 6.28 | inactive |  |
| CN(C[C@@H](CCN1CCC(O)(c2ccccc2[S+](C)[O-])CC1)c1ccc(Cl)c(Cl)c1)C(=O)c1cccc2ccccc12 (stereo partly drawn) | 7.32 | 7.3 |  |  |
| CCN1C(=O)c2ccccc2[C@H]1[C@@H](CCN1CCC(c2ccccc2[S@+](C)[O-])CC1)c1ccc(Cl)c(Cl)c1 | 8.8 |  |  |  |
| CN(C[C@@H](CCN1CCC(O)(c2ccc([S+](C)[O-])cc2)CC1)c1ccc(Cl)c(Cl)c1)C(=O)c1cccc2ccccc12 (stereo partly drawn) | 7.54 | 6.92 |  |  |
| CN(C[C@@H](CCN1CCC(c2ccccc2[S+](C)[O-])CC1)c1ccc(Cl)c(Cl)c1)C(=O)c1cc(Br)cc2ccccc12 (stereo partly drawn) | 7.67 | 8.15 |  |  |
| CN(C[C@@H](CCN1CCC(c2ccccc2[S+](C)[O-])CC1)c1ccc(Cl)c(Cl)c1)C(=O)c1cccc2ccccc12 (stereo partly drawn) | 8.18 | 7.89 |  |  |

| Structure (SMILES) | pKB [1] | pKB [2] | pKB [3] | pKB (Substance-P receptor) |
| --- | --- | --- | --- | --- |
| CN(C[C@@H](CCN1CCC(c2cccnc2[S+](C)[O-])CC1)c1ccc(Cl)c(Cl)c1)C(=O)c1cccc2ccccc12 (stereo partly drawn) | 7.82 | 7.69 |  |  |
| C=C(C)c1cc(C(=O)N(C)C[C@@H](CCN2CCC(c3ccccc3[S+](C)[O-])CC2)c2ccc(Cl)c(Cl)c2)c2ccccc2c1 (stereo partly drawn) | 7.24 | 7.24 |  |  |
| CC(=O)c1cc(C(=O)N(C)C[C@@H](CCN2CCC(c3ccccc3[S+](C)[O-])CC2)c2ccc(Cl)c(Cl)c2)c2ccccc2c1 (stereo partly drawn) | 7.17 | 7.41 |  |  |
| CN(C[C@@H](CCN1CCC(c2ccccc2[S+](C)[O-])CC1)c1ccc(Cl)c(Cl)c1)C(=O)c1cc(CC#N)cc2ccccc12 (stereo partly drawn) | 6.99 | 8.42 |  |  |
| CN(C[C@@H](CCN1CCC(c2ccccc2[S+](C)[O-])CC1)c1ccc(Cl)c(Cl)c1)C(=O)c1cc(S(N)(=O)=O)cc2ccccc12 (stereo partly drawn) | 7.02 | 7.54 |  |  |
| CN(C[C@@H](CCN1CCC(c2ccccc2[S+](C)[O-])CC1)c1ccc(Cl)c(Cl)c1)C(=O)c1cc(F)cc2ccccc12 (stereo partly drawn) | 8.15 | 7.9 |  |  |
| CC(=O)NC1(c2ccccc2)CCN(CC[C@H](CN(C)C(=O)c2ccccc2)c2ccc(Cl)c(Cl)c2)CC1 | 9.3 |  |  |  |
| CN(C[C@@H](CCN1CCC(c2ccccc2[S+](C)[O-])CC1)c1ccc(Cl)c(Cl)c1)C(=O)c1ccc(C#N)c2ccccc12 (stereo partly drawn) | 7.34 | 6.31 |  |  |
| CNC(=O)C1(N2CCCCC2=O)CCN(CC[C@H](CN(C)C(=O)c2cccc3ccccc23)c2ccc(Cl)c(Cl)c2)CC1 | 8.44 | 6.42 |  |  |
| C#Cc1cc(C(=O)N(C)C[C@@H](CCN2CCC(c3ccccc3[S+](C)[O-])CC2)c2ccc(Cl)c(Cl)c2)c2ccccc2c1 (stereo partly drawn) | 7.44 | 7.71 |  |  |
| CN(C[C@@H](CCN1CCC(c2ccccc2[S+](C)[O-])CC1)c1ccc(Cl)c(Cl)c1)C(=O)c1cc(S(C)(=O)=O)cc2ccccc12 (stereo partly drawn) | 7.35 | 7.43 |  |  |
| COc1cc(C(=O)N(C)C[C@@H](CCN2CCC(c3ccccc3[S+](C)[O-])CC2)c2ccc(Cl)c(Cl)c2)c2ccccc2c1 (stereo partly drawn) | 7.7 | 7.95 |  |  |
| CN(C[C@@H](CCN1CCC(c2ccccc2[S+](C)[O-])CC1)c1ccc(Cl)c(Cl)c1)C(=O)c1cc(Cl)cc2ccccc12 (stereo partly drawn) | 7.1 | 7.15 |  |  |
| CN(C[C@@H](CCN1CCC(c2ccccc2[S+](C)[O-])CC1)c1ccc(Cl)c(Cl)c1)C(=O)c1cc(C(F)(F)F)cc2ccccc12 (stereo partly drawn) | 6.45 | 7.84 |  |  |
| CN(C[C@H](CCN1CCC(c2ccccc2[S+](C)[O-])CC1)c1ccc(Cl)c(Cl)c1)C(=O)c1cc(C#N)cc2ccccc12 (stereo partly drawn) | 7.1 |  |  | inactive |
| CN(C[C@@H](CCN1CCC(c2ccccc2[S+](C)[O-])CC1)c1ccc(Cl)c(Cl)c1)C(=O)c1cc([N+](=O)[O-])cc2ccccc12 (stereo partly drawn) | 9.03 | 8.16 |  |  |
| CN(C)C(=O)c1cc(C(=O)N(C)C[C@@H](CCN2CCC(c3ccccc3[S+](C)[O-])CC2)c2ccc(Cl)c(Cl)c2)c2ccccc2c1 (stereo partly drawn) | 7.31 | 5.17 |  |  |
| CN(C[C@@H](CCN1CCC(c2ccccc2S(C)(=O)=O)CC1)c1ccc(Cl)c(Cl)c1)C(=O)c1cccc2ccccc12 | 7.55 | 7.81 |  |  |
| CN(C[C@@H](CCN1CCC(c2ccc([S+](C)[O-])cc2)CC1)c1ccc(Cl)c(Cl)c1)C(=O)c1cccc2ccccc12 (stereo partly drawn) | 6.76 | 7.4 |  |  |
